Activity calls are given as the source filed them.

One experiment concerns the target Nonstructural protein 1 (Influenza A virus, UniProt Q194T2). It counts as functional, Influenza A virus (A/California/07/2009(H1N1)).
In experiment [1] the target is T1, Histone-lysine N-methyltransferase NSD2 (Homo sapiens, UniProt O96028).
T1 sequence (O96028 whole entry): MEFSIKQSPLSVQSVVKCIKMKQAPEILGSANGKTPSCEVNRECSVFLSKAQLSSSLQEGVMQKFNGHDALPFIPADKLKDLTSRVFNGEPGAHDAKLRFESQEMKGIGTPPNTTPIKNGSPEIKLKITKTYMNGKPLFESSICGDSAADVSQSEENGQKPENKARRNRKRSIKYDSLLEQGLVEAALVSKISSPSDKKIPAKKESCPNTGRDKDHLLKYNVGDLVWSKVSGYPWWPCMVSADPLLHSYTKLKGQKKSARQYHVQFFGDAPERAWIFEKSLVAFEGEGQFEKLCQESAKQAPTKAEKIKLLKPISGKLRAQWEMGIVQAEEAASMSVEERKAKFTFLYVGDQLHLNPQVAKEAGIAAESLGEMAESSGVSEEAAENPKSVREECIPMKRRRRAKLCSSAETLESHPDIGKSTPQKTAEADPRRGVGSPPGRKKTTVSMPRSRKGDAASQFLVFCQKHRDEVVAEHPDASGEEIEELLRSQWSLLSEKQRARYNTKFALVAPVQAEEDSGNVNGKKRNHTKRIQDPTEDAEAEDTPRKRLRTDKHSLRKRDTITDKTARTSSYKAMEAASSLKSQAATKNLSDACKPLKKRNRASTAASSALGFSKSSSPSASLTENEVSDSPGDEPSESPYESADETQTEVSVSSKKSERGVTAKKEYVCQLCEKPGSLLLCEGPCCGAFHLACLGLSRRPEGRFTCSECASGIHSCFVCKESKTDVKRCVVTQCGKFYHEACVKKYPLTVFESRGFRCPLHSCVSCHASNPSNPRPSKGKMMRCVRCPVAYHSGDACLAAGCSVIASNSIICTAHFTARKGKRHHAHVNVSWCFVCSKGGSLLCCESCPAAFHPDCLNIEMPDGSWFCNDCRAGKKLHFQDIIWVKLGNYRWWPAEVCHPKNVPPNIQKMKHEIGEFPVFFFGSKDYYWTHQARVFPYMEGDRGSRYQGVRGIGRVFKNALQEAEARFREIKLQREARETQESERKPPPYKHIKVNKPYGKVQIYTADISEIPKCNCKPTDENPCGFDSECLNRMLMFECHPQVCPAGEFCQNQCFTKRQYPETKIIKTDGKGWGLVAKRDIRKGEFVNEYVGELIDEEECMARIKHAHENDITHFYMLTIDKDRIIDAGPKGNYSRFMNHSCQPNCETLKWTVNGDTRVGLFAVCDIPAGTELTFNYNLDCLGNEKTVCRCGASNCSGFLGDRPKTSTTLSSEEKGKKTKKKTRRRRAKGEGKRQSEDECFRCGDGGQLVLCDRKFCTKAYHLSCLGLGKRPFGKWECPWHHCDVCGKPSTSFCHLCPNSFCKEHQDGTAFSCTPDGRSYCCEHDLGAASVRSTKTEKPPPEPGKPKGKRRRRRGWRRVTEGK
It counts as biochemical.

The target of experiment [2] is T2, DNA repair protein RAD52 homolog (Homo sapiens, UniProt P43351).
T2 sequence (P43351 whole entry): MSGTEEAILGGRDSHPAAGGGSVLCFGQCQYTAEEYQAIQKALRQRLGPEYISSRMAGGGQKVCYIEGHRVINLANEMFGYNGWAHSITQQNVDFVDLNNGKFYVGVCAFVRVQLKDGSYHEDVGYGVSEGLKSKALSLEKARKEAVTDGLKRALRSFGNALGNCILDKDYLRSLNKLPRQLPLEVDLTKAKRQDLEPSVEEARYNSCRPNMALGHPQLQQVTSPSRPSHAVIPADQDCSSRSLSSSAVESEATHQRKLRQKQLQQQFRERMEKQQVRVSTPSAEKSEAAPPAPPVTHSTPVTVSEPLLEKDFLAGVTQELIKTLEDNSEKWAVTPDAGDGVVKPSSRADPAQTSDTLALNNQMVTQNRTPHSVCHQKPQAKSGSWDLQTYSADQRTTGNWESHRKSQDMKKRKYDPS
It counts as functional, biochemical.

The target of experiment [3] is Glucose-6-phosphate 1-dehydrogenase (Homo sapiens, UniProt P11413). As to the kind of experiment: human G6PD enzyme inhibitors, dose response, selectivity assay for P. falciparum G6PD inhibitor project, biochemical, fluorescence (AID 504792). It counts as functional.
Experiment [4] is described as follows: NIH-3T3 fibroblast cytotoxicity, dose response, cytotoxicity control, cell-based, fluorescence, Alamar Blue, secondary assay (AID 2327).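 Also: NIH-3T3 mouse fibroblasts cultured with fluconazole at 8 µg/mL.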 It counts as functional.
A short description of experiment [5]: C. albicans growth with fluconazole, confirmation, fluorescence, retest (AID 2467). It counts as functional, cell-based.
Experiment [6] in a line: ZM109 Env clade C HIV-1 fusion inhibitors, dose response, HeLa effector, CEM target cells, luciferase, cherry-pick (AID 652058). It counts as functional, cell-based.
Experiment [7] in a line: inhibitors of HIV Env-driven cell fusion, dose response, cherry-pick (AID 652057). It counts as functional, cell-based.
A short description of experiment [8]: inhibitors of clade B AD8 Env fusion, dose response, cell-based, cherry-pick (AID 652062).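 Also: luciferase signal from cell-cell fusion driven by HIV-1 clade B AD8 Env; potency is for inhibitors of fusion seen as a drop in luminescence.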 It counts as functional.
Experiment [9] in a line: off-target signal loss in HeLa-CEM21 co-culture – HeLa F-luc CTL cells, cherry-picked, counter-screen for HIV-1 Env fusion inhibitor project, dose response (AID 652040).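 Also: potency for signal decrease marking cytotoxic or nonspecific inhibition.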 It counts as functional, cell-based.
The target in a further experiment is Paired box protein Pax-8 (Homo sapiens, UniProt Q06710). Description: inhibitors of PAX8-driven TPO luciferase reporter, dose response, RMG-I cells, cherry-pick (AID 687027).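 Also: luciferase reporter driven by Pax8 target thyroperoxidase promoter measured by SteadyGlo luminescence.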 It counts as functional, cell-based.
The next experiment deals with P388/ADR. As to the kind of experiment: cells. It counts as functional. As to conditions: Mus musculus.
The next experiment has as its system SN12K1. As to the kind of experiment: cells. It counts as functional. The settings on record: Homo sapiens.
For experiment [10], the target named is T3, Carboxy-terminal domain RNA polymerase II polypeptide A small phosphatase 1 (Homo sapiens, UniProt Q9GZU7).
T3 sequence (Q9GZU7 whole entry): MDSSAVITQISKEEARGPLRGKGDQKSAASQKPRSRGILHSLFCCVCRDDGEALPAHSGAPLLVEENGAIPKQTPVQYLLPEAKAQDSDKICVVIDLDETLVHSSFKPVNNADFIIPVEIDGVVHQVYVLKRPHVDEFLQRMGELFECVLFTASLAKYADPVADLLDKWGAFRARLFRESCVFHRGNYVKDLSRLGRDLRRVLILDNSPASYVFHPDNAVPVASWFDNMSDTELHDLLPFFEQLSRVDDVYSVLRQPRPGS
Description: inhibitors of CTDSP1, concentration-response testing, biochemical assay, absorbance-based, actives from ultra-high-throughput screening (AID 540297). It counts as functional.

The target of experiment [11] is Heat shock protein HSP 90-alpha (Homo sapiens, UniProt P07900). It counts as functional, organism-based.
A short description of experiment [12]: Luminescence Cell-Based Dose Retest to Confirm Inhibitors of Cancer Stem Cells. [Related pubchem assays (depositor defined):AID2717, AID2721]. It counts as functional. The settings on record: Homo sapiens.
A further experiment is described as follows: cells. It counts as functional.
Experiment [13] in a line: THP-1 cell cytotoxicity, dose response, cytotoxicity control for non-replicating M. tuberculosis project (AID 489025). It counts as functional.

Chain of Nonstructural protein 1 (Q194T2 whole entry): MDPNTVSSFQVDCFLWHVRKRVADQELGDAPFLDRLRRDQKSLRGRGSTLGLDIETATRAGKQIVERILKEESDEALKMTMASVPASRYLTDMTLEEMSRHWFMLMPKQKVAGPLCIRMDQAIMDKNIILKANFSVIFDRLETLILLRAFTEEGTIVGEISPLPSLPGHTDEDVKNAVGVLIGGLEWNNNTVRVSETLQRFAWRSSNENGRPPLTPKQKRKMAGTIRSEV
Chain of Glucose-6-phosphate 1-dehydrogenase (P11413 whole entry): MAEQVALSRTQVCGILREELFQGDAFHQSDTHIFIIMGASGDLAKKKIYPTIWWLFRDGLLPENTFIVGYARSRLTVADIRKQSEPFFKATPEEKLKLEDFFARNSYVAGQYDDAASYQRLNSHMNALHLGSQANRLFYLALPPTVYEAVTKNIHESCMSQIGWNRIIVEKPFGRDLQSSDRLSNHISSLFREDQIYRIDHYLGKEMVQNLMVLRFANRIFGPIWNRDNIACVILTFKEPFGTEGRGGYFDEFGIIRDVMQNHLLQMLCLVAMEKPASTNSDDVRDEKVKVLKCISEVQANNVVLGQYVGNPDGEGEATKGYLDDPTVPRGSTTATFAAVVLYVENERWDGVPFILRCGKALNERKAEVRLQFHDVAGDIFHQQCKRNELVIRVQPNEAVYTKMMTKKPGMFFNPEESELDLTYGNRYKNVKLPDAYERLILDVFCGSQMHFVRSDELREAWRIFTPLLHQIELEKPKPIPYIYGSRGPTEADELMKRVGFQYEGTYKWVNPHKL
Chain of Paired box protein Pax-8 (Q06710 whole entry): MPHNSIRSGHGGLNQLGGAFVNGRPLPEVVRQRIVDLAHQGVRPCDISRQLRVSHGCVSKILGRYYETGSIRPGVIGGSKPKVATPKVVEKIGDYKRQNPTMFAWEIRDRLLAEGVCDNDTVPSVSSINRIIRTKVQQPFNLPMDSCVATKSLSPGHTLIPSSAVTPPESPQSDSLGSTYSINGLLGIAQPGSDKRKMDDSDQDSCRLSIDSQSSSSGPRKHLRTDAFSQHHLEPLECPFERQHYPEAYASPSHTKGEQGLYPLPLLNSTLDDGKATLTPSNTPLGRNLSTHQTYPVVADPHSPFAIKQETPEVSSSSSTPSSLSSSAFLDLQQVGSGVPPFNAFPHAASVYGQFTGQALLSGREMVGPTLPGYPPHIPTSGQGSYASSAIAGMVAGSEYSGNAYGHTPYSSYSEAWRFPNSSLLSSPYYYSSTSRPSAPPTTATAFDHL

Take `COc1cccc(NC(=O)CSc2nn3c(=O)c(C)nnc3s2)c1`: the IC50 on Nonstructural protein 1 was 11.3 µM (active).

For `N#CC1C(=O)Nc2cccnc21` (stereo unspecified), the AC50 in experiment [1] is > 20 µM (inactive).

With `CCOc1ccc2[nH]c3c(c2c1)CNCC3`, the AC50 in [2] was 26.8 µM (active). As to `C/C(Cn1nnc([N+](=O)[O-])n1)=N\NC(=O)c1ccc(O)cc1`, the IC50 in experiment [3] was > 80 µM (inactive). Consider `COCc1cc(CN2CCN(C)CC2)c(O)c2ncccc12`, for which the results for the EC50 in experiment [4] and in experiment [5] were > 160 µM (inactive) and > 38 µM (not active), respectively. The IC50 at Nonstructural protein 1 was 4.15 µM (active). With `COC(=O)[C@@]1(Cc2ccccc2)[C@H]2C(=O)N(Cc3ccccc3)C(=O)[C@H]2[C@H]2CN=C(SCc3ccc(C#N)cc3)N21`, the AC50 was 3.83 µM (active) in [6], 2.07 µM (active) in experiment [7], 4.69 µM (active) in experiment [8] and 4.57 µM (active) in [9]. Turning to `O=C(C[C@H]1CC[C@H]2[C@@H](COC[C@@H](O)CN2Cc2ccc(F)cc2)O1)NCc1ccccc1Cl`, the AC50 on Paired box protein Pax-8 was 23.7 µM (active). For `Nc1cc2[nH]cnc2c(=O)[nH]1` [DEZAGUANINE], the figures for the GI50 in the experiment on P388/ADR and in the experiment with SN12K1 were 10.2 µM (inactive) and 13.8 µM (inactive), respectively. On to `COc1ccc([C@@H]2[C@@H]3C(=O)N(C(C)(C)C)C(=O)[C@@H]3[C@]3(CC(C)C)C(=O)N(c4cccc(F)c4)C(=O)N23)cc1`, for which the AC50 in experiment [6], in experiment [7], in [8] and in experiment [9] was < 0.26 µM (active) in each case. Regarding `O=C(Cn1cc(/C=N/NC(=O)c2cccc(C(F)(F)F)c2)c2ccccc21)Nc1ccc(F)cc1`, the IC50 in [10] was 4.23 µM (active).

Take `C#CCOCCOCCOCCNc1nc(N2CCN(C(=O)Cn3cc(CCCN=C(N)N)nn3)CC2)nc(N2CCN(C(=O)[C@H](CCCCN)n3cc(CCCC)nn3)CC2)n1`: in experiment [2], the AC50 is 34 µM (active). Consider `COCCN(C(=O)c1cc(-c2ccco2)nc2ccccc12)c1c(N)n(Cc2ccccc2)c(=O)[nH]c1=O`, for which the IC50 in [10] was 6.59 µM (active).

Take `O=C(CN(c1cc(C(F)(F)F)ccc1Cl)S(=O)(=O)c1ccccc1)NCc1cccnc1`: the AC50 in experiment [6] was 3.01 µM (active); in experiment [7] it was 1.98 µM (active); in experiment [8], 5.21 µM (active); in experiment [9] it was 3.81 µM (active).

On to `Cc1cccc(C(=O)Nc2nnc(S(=O)(=O)N3CCOCC3)s2)c1`, for which the IC50 in experiment [3] was 54.4 µM (inactive). On to `O=C(CN1CCN(S(=O)(=O)c2ccc(Cl)cc2)CC1)c1ccc(O)c(O)c1`, for which the AC50 in [1] was 4.91 µM (active). Take `COc1ccccc1NC(=O)CSc1ccc(-c2ccccn2)nn1`: the IC50 at Nonstructural protein 1 was 7.99 µM (active). As for `CN(C)C(=O)COC(=O)c1ccc(S(=O)(=O)NCc2ccco2)cc1`, the IC50 in experiment [10] is 6.65 µM (active).

With `O=C(/C=C/c1ccccc1[N+](=O)[O-])c1ccccc1Br`, the AC50 was 4.37 µM (active) in experiment [11] and 7.14 µM (active) in [12].

Turning to `CC1(C)Cc2c(sc3nc4n(-c5ccccc5)c(=O)c(CCC(=O)O)nn4c(=O)c23)CO1`, in experiment [3], the IC50 is 34.1 µM (inactive).

As to `CCN(C[C@H]1N[C@@](CC)(C(=O)OC)[C@H]2C(=O)N(Cc3ccccc3)C(=O)[C@@H]12)S(=O)(=O)c1ccc(C(F)(F)F)cc1`, the AC50 is 1.3 µM (active) in [6], 1.3 µM (active) in [7], 2.16 µM (active) in experiment [8] and 1.79 µM (active) in [9].

As for `CCC(C)(C)NC(=O)C(c1ccc(C)cc1)N(CC1CCCO1)C(=O)c1csnn1` (stereo unspecified), the AC50 in [6] was 2.82 µM (active); in experiment [7], 4.81 µM (active); in experiment [8], 7.81 µM (active); in experiment [9] it was 6.84 µM (active). Take `COc1cc(NCc2ccccc2)c2ncn(Cc3ccccc3)c2c1`: the IC50 in experiment [3] was > 80 µM (inactive). On to `CCc1ccc(Cc2cnc(NC(=O)C3=NCCN3)s2)cc1`, for which the IC50 in “cells” was 9.25 µM (active). In addition, the CC50 in experiment [13] was > 40 µM (active). Regarding `Fc1cc(F)cc(-c2c(-c3ccccc3)ncc3ccc(F)cc23)c1`, the concentration for half-maximal inhibition (IC50) in experiment [10] was 8.88 µM (active). As for `COc1ccc2c(c1)CC1c3c(cc4c(c3-2)OCO4)CC[N+]1(C)[O-]` (stereo unspecified), the AC50 in [2] was 3.38 µM (active). `O=C(Nc1ccc(Cl)cn1)C1CCCN1S(=O)(=O)c1cccc2ccccc12` (stereo unspecified): the AC50 was 29.8 µM (active) in [7] and 53.6 µM (active) in experiment [9]. On to `CN1CCN(C(=O)c2cc(COc3c(F)cccc3F)on2)CC1c1ccccc1` (stereo unspecified), for which the AC50 in experiment [11] is 0.566 µM (active). For `O=C(CCCOc1ccccc1)OCn1nnc2ccccc2c1=O`, the IC50 in the experiment “cells” is 3.55 µM (active).

As to `CCCN(CCC)CCNC(=O)c1cc2c(-c3ccccc3F)nn(C)c2s1`, the AC50 in [1] is > 20 µM (inactive). Regarding `CCOC(=O)C1CCCN(C2CC(=O)N(c3cccc(C(F)(F)F)c3)C2=O)C1` (stereo unspecified), the AC50 in experiment [11] was 7.53 µM (active). On to `CNCCCc1ccccc1`, for which the AC50 in experiment [1] is > 20 µM (inactive). Consider `COc1ccc(/C=C(\C#N)C(=O)Nc2ccc3[nH]c(O)nc3c2)cc1`, for which, in experiment [10], the IC50 was 3.26 µM (active). Turning to `CC(=O)Nc1ccc(NC(=O)CSc2nc(N)c(NC(=O)c3ccccc3F)c(=O)[nH]2)cc1`, the IC50 in experiment [10] was 11.9 µM (active). As for `O=C(OCc1nnc(-c2ccccc2)o1)c1ccc(Br)o1`, the IC50 in the experiment “cells” is 20.1 µM (active). For `Cc1ccc(N2C(=O)C3C4C=CC(CN=C(S)N5CCN(c6cccc(C)c6)C(C)C5)(O4)C3C2=O)cc1` (stereo unspecified), the AC50 in experiment [11] was 8.5 µM (active).

These data come from ChEMBL document CHEMBL1201862, “PubChem BioAssay data set” (2004).
